Experimental data published in ChEMBL document CHEMBL5143658, “Synthesis and biological evaluation of imidamide analogs as selective anti-trypanosomal agents” (Bioorg Med Chem, 2022).
Calls of active or inactive are those of the source. The rule behind the calls is not given here.

Legend:
[1] = Cytotoxicity against HEK293 cells assessed as inhibition of cell growth incubated for 48 hrs by MTT assay; format: toxicity, cell-based; conditions: human
[2] = Selectivity index, ratio of IC50 for cytotoxicity against HEK293 cells to IC50 for antitrypanosomal activity against blood stream form of Trypanosoma brucei Lister 427; format: toxicity, cell-based; conditions: human, read-out: Ratio IC50
[3] = Selectivity index, ratio of IC50 for cytotoxicity against mouse RAW264.7 cells to IC50 for antitrypanosomal activity against blood stream form of Trypanosoma brucei Lister 427; format: toxicity, cell-based; conditions: read-out: Ratio IC50
[4] = Cytotoxicity against mouse RAW264.7 cells assessed as inhibition of cell growth incubated for 48 hrs by MTT assay; format: toxicity, cell-based
[5] = tested on: Trypanosoma brucei; assay: Antitrypanosomal activity against blood stream form of Trypanosoma brucei Lister 427 assessed as inhibition of parasite growth incubated for 48 hrs by MTS assay; format: functional, organism-based; conditions: Lister 427, 48 h
[6] = tested on: Trypanosoma brucei; assay: Inhibition of tubulin polymerization in blood stream form of Trypanosoma brucei Lister 427 assessed as reduction in polymerized tubulin level incubated for 12 hrs by Western blot analysis; conditions: dose 200-1000 nM

Compound | IC50 at 48 h [1] [µM] | selectivity ratio [2] | selectivity ratio [3] | IC50 at 48 h [4] [µM] | IC50 [5] [µM] | inhibition [6]
COc1ccc(OC)c(COc2cc(NC(=O)c3cc(C(F)(F)F)cc(C(F)(F)F)c3)ccc2NC(=N)N)c1 | 307 | < 6.13 | 2.45 | 123 | > 50 | –
N=C(N)Nc1ccc(NC(=O)c2ccc3c(c2)OCO3)cc1OCc1cccc(C(F)(F)F)c1 | 313 | 9.3 | 2.99 | 101 | 33.7 | –
Cc1ccc(C(F)(F)F)c(COc2cc(NC(=O)c3cccc(C(=N)N)c3)ccc2N(C)S(=O)(=O)C(F)(F)F)c1 | 25 | 114 | 3.9 | 0.86 | 0.22 | –
CN(c1ccc(NC(=O)c2cccc(C(=N)N)c2)cc1OCc1ccc(C(F)(F)F)cc1)S(=O)(=O)C(F)(F)F | > 500 | – | 10 | > 500 | > 50 | –
Cc1ccc(C)c(COc2cc(NC(=O)c3cc(C(F)(F)F)cc(C(F)(F)F)c3)ccc2NC(=N)N)c1 | > 500 | > 23.8 | 23.8 | > 500 | 21 | –
CCS(=O)(=O)N(C)c1ccc(NC(=O)c2cccc(C(=N)N)c2)cc1OCc1ccc(C(=N)N)cc1 | 426 | 722 | 847 | > 500 | 0.59 | –
COc1ccc(C(=O)Nc2ccc(NC(=N)N)c(OCc3cccc(C(F)(F)F)c3)c2)cc1 | 263 | 9.58 | 3.71 | 102 | 27.4 | –
N=C(N)Nc1ccc(NC(=O)c2ccc(C(F)(F)F)cc2C(F)(F)F)cc1OCc1ccc(C(F)(F)F)cc1 | 286 | 15.7 | 27.5 | > 500 | 18.2 | –
CN(c1ccc(NC(=O)c2ccc(C(=N)N)cc2)cc1OCc1ccc(C(F)(F)F)cc1)S(=O)(=O)Cc1ccccc1 | > 500 | > 17.6 | 17.6 | > 500 | 28.4 | –
Cc1ccc(C)c(COc2cc(NC(=O)c3ccc(Cl)c(Cl)c3)ccc2NC(=N)N)c1 | > 500 | > 18.1 | 18.1 | > 500 | 27.6 | –
N=C(N)Nc1ccc(NC(=O)c2cc(C(F)(F)F)cc(C(F)(F)F)c2)cc1OCc1ccc(C(F)(F)F)cc1 | 416 | 24.6 | 29.6 | > 500 | 16.9 | –
CN(c1ccc(NC(=O)c2cccc(C(=N)N)c2)cc1OCc1cccc(C(F)(F)F)c1)S(=O)(=O)Cc1ccccc1 | > 500 | > 32.6 | 32.6 | > 500 | 15.3 | –
CN(c1ccc(NC(=O)c2cccc(C(=N)N)c2)cc1OCc1ccc(C(=N)N)cc1)S(=O)(=O)Cc1ccccc1 | – | – | 50000 | > 500 | – | Active
N=C(N)Nc1ccc(NC(=O)c2ccc3c(c2)OCO3)cc1OCc1ccccc1C(F)(F)F | 450 | < 9 | 10 | > 500 | > 50 | –
N=C(N)Nc1ccc(NC(=O)c2cc(C(F)(F)F)cc(C(F)(F)F)c2)cc1OCc1ccccc1C(F)(F)F | > 500 | > 11.1 | 10.7 | 481 | 45.1 | –
COc1ccc(C(=O)Nc2ccc(NC(=N)N)c(OCc3cc(C)ccc3C)c2)cc1 | > 500 | > 10.4 | 10.4 | > 500 | 47.9 | –
COc1ccc(C(=O)Nc2ccc(NC(=N)N)c(OCc3cc(OC)ccc3OC)c2)cc1 | > 500 | > 556 | 211 | 190 | 0.899 | –
N=C(N)Nc1ccc(NC(=O)c2ccc(Cl)c(Cl)c2)cc1OCc1ccccc1C(F)(F)F | > 500 | > 32.8 | 12.8 | 196 | 15.2 | –
CCCCCCOc1cc(NC(=O)c2ccc(OC)cc2)ccc1NC(=N)N | > 500 | – | 5.17 | 259 | > 50 | –
COc1ccc(OC)c(COc2cc(NC(=O)c3ccc4c(c3)OCO4)ccc2NC(=N)N)c1 | > 500 | – | 10 | > 500 | > 50 | –
CCCCCCOc1cc(NC(=O)c2ccc3c(c2)OCO3)ccc1NC(=N)N | 385 | < 7.7 | 9.2 | 460 | > 50 | –
N=C(N)Nc1ccc(NC(=O)c2ccc(Cl)c(Cl)c2)cc1OCc1ccc(C(F)(F)F)cc1 | > 500 | – | 10 | > 500 | > 50 | –
N=C(N)Nc1ccc(NC(=O)c2ccc3c(c2)OCO3)cc1OCc1ccc(C(F)(F)F)cc1 | 344 | < 6.87 | 0.54 | 27.2 | > 50 | –
CN(c1ccc(NC(=O)c2ccc(C(=N)N)cc2)cc1OCc1ccc(C(F)(F)F)cc1)S(=O)(=O)C(F)(F)F | > 500 | – | 10 | > 500 | > 50 | –
CN(c1ccc(NC(=O)c2cccc(C(=N)N)c2)cc1OCc1ccc(C(F)(F)F)cc1)S(=O)(=O)Cc1ccccc1 | > 500 | > 36.3 | 36.3 | > 500 | 13.8 | –
